Five compounds from US20040048283A1, “Novel method for screening bacterial transcription modulators” (priority 2000, published 2004) can be followed below.

One test has as its system E. coli K12. In words: inhibition of growth in solid medium (inhibition diameter). The test is classed as cell-based. The note with it: for diameter of inhibition, K12: solid medium. The procedure:
(§1) A preculture of the strains E. coli K12, S. aureus and S. epidermis in Mueller Hinton Broth medium (Mueller and Hinton, 1941) is carried out at 37° C., until an optical density of 0.1 at 650 nm is obtained. 100 μl of the preculture is added to 10 ml of the medium: 0.1% agarose, 10 mM sodium phosphate pH 7.4; 0.3 mg/ml trypcase-soy; 100 mM NaCl.
(§2) The mixture is poured into a […] Petri dish. Wells are made in the gelose and 5 μl of the solutions to be tested, containing the screened products, are placed in each well. The dishes are left at ambient temperature for 2 hours, then 10 ml of the medium (1% agarose; 10 mM sodium phosphate—pH 7.4-6% trypcase-soy) are poured into the Petri dish forming an overlay. After solidification, the dishes are incubated overnight at 37° C.
(§3) The antibacterial activity is evaluated by measuring the diameter of the bacterial growth inhibition of the zone at the centre of which the product was placed.

Another test has as its system S aureus. Described as above. The test is classed as cell-based. The note with it: for diameter of inhibition, S aureus: solid medium. The procedure: as §1, §2, §3
The next test relates to S epidermidis. The description is as above. The test is classed as cell-based. The procedure:
as §1, §2, §3

In test [1] the target is T1, bond between the core enzyme of the RNA polymerase and the protein σ^70 (Escherichia coli, UniProt P0A7Z4+P0A8T7+P0A8V2).
T1 construct: made in house
T1 sequence (P0A8T7 whole entry): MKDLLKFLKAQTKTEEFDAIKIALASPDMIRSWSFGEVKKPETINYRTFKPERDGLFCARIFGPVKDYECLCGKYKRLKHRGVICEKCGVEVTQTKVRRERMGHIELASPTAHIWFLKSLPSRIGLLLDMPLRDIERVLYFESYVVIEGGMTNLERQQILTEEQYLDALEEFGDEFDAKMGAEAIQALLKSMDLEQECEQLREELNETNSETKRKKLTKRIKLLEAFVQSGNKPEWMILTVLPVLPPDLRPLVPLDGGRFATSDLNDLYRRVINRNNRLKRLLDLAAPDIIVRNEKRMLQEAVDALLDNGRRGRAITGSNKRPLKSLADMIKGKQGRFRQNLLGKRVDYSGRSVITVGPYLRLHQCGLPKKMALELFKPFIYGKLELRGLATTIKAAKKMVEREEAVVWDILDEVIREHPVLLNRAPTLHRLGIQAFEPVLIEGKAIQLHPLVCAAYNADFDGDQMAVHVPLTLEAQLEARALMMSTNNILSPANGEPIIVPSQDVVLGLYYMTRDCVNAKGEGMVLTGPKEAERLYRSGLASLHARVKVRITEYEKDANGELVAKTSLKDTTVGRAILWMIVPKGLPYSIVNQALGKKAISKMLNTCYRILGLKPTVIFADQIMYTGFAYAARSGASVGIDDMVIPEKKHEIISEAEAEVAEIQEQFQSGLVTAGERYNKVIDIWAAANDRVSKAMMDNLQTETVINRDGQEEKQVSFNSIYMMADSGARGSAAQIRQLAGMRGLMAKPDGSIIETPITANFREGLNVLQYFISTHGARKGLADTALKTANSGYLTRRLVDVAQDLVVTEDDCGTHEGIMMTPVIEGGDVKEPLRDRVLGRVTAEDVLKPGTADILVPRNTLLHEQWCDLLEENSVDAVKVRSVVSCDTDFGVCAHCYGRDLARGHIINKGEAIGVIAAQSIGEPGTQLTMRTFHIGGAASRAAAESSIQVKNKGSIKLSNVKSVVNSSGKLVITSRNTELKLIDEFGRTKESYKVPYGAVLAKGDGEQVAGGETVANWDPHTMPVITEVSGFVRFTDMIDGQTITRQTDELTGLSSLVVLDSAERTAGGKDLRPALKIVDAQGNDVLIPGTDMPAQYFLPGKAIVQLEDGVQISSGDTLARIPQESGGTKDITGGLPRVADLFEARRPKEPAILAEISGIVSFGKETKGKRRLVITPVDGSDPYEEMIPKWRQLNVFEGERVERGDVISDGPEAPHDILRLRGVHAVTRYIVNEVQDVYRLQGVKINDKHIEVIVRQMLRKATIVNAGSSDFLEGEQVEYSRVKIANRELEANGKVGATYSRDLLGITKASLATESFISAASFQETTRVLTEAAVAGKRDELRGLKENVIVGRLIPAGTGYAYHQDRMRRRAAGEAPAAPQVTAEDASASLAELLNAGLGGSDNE
T1 sequence (P0A8V2 whole entry): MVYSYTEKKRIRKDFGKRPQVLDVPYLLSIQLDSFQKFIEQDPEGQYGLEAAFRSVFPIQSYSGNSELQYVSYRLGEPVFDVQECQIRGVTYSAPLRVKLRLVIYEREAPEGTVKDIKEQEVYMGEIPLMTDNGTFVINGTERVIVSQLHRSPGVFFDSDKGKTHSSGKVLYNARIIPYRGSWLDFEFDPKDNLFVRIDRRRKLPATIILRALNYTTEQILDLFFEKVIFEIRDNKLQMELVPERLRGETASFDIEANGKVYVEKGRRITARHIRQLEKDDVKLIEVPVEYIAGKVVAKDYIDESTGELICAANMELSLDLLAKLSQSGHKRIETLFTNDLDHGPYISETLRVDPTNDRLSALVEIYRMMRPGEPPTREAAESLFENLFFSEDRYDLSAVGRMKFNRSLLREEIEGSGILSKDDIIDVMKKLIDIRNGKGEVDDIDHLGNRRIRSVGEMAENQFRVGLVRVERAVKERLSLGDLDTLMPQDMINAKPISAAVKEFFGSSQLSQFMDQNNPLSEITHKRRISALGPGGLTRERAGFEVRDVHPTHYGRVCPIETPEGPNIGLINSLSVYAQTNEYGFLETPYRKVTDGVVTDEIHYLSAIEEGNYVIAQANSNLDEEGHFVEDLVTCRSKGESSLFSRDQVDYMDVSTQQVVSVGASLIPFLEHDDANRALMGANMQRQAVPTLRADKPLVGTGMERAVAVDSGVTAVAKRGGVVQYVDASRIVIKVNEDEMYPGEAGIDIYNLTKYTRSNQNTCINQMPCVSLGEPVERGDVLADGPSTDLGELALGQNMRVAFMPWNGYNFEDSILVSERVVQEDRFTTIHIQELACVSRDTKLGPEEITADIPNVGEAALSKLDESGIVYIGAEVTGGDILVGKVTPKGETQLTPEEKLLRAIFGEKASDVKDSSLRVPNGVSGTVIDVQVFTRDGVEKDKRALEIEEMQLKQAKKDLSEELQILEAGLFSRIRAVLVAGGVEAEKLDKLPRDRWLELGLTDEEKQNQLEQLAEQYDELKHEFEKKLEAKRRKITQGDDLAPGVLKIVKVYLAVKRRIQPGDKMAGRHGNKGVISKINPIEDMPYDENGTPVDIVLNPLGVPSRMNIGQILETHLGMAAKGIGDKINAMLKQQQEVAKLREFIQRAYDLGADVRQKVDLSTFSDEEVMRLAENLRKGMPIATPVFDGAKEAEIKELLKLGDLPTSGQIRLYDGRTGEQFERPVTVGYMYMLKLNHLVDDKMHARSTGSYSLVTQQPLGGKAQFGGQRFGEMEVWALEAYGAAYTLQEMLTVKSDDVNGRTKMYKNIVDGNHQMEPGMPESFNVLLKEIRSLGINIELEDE
T1 sequence (P0A7Z4 whole entry): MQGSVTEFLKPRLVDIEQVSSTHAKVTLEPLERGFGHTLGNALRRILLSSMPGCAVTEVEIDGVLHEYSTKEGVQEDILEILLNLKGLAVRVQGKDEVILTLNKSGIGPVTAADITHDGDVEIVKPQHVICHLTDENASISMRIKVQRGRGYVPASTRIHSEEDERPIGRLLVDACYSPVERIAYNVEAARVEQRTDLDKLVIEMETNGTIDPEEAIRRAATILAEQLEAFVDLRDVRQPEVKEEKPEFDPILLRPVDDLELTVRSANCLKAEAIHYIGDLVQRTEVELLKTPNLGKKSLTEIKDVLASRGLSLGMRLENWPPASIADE
In words: sigma70-RNA polymerase bond test (ELISA-type complexation test). The test is classed as binding, E. coli. The procedure:
Thus, the different compounds tested are incubated in the presence of the core enzyme in a microassay dish on which the protein σ^70 is adsorbed, each well of the plate containing 1 μM of σ^70 during the adsorption phase.
The sigma70 proteins and the RNA polymerase of E. coli are expressed and purified under standard conditions (Burgess et al., Biochemistry, 1975, October 21; 14(21): 4634-8; Burgess R., Methods Enzymol 1996; 273: 145-9). The sigma70 protein is stored at −80° C. in (20 mM tris HCl pH 8; 5 M guanidine chloride; 10 mM β-mercaptoethanol; 50% glycerol) at a concentration of 100 μM. The core RNA polymerase is stored at −80° C. in (20 mM tris HCl pH 8, 100 mM KCl, 10 mM β-mercaptoethanol, 50% glycerol) at a concentration of 1 μM. The antipolymerase monoclonal antibody was obtained and purified by standard techniques (Short Protocols in Molecular Biology 2nd edition, John Wiley & Its) then chemically coupled to activated peroxidase (Boehringer Mannheim Biochemica ref. 1428861) according to the supplier's recommendations.
The test is based on the adsorption of sigma70 on an ELISA plate for 12 hours at 4° C. (6 pmoles of protein diluted in 100 μl of PBS per well, on Nunc-immuno plates, Maxisorp.). The protein dilutions and the buffers were optimized in order to reduce the non-specific bond of the RNA polymerase. After washing the plate with PBS 0.1% tween20, the plate is saturated with 200 μl of PBS 0.1% tween20, 1% BSA then incubated for 1 hour at ambient temperature with the RNA polymerase of E. coli (0.25 pmole of core RNA polymerase in 100 μl of PBS 0.1% tween 20, 1% BSA, 10 mM MgCl2) in the presence or in the absence of an optional inhibitor. […] The sigma70-RNA polymerase antibody complex is detected with a substrate of peroxidase, O-phenylenediamine, or another appropriate medium. […]
After three washings with 0.1% PBS-T (v/v), the peroxidase substrate is added (OPD, Biorad). The reaction takes place for 2 to 3 minutes in darkness then an absorbance measurement is carried out at 490 nm, after stopping the reaction with 50 μl of 4N H2SO4. […]
On the technique in general: ELISA stands for enzyme-linked immunosorbent assay.

In test [2] the target is T2, bond between the RNA polymerase and the protein NusA (Escherichia coli, UniProt P0A7Z4+P0A8T7+P0A8V2).
T2 construct: polyhistidine (C); made in house; host or cells: NusA: BL21 lambda DE3 E. coli cells (printed 'BL211amdaDE3'), pet21-type vector
In words: NusA-RNA polymerase bond test (ELISA-type complexation test). The test is classed as binding, E. coli. The procedure: More precisely, the different compounds tested (from the family of 5,988,031) are incubated in the presence of core enzyme in a microassay dish on which the protein NusA is adsorbed at a concentration equal to 20 μg/ml.
The gene coding for the protein NusA and comprising a C-terminal polyhistidine tag was cloned in a pet21-type vector. After transfection in BL211amdaDE3 cells, the cells are cultured in LB medium at 37° C. under vigorous stirring. The production of protein is induced by the addition of 1 mM IPTG. After 3 hours' culture, the cells are recovered by centrifugation and lysed according to (Burgess et al., Biochemistry, 1975 October 21; 14(21): 4634-8). After centrifugation, the supernatant is passed over an Ni NTA agarose column (Quiagen) according to the supplier's recommendations. The protein NusA is stored at −80° C. in (20 mM tris HCl pH 8; 5 M guanidine chloride; 10 mM β-mercaptoethanol; 50% glycerol) at a concentration of 100 μM.
The test is based on the adsorption of NusA on an ELISA plate for 12 hours at 4° C. (6 pmoles of protein diluted in 100 μl of PBS per well on Nunc-immuno plates, Maxisorp.). The dilutions of protein and the buffers were optimized in order to reduce the non-specific bond of the RNA polymerase. […] The sigma70-RNA polymerase-antibody complex is detected with a substrate of peroxidase, O-phenylenediamine, or another appropriate medium. […]

For test [3], the target named is bond between an antibody, for example 11D11, and the RNA polymerase (Escherichia coli, UniProt P0A7Z4+P0A8T7+P0A8V2). Put plainly: specificity: antibody-RNA polymerase bond. The format is binding, E. coli.
Test [4] concerns the target assembly of the α, β and β′ subunits (Escherichia coli, UniProt P0A7Z4+P0A8T7+P0A8V2). Put plainly: specificity: assembly of RNA polymerase subunits. The test is classed as binding, E. coli.
The next test relates to E. coli TG1 cells. In words: inhibition of growth in microassay dish. The test is classed as cell-based. The note with it: FIG. 4; optical density at 650 nm after 12 hours at 37° C. The procedure: FIG. 4 corresponds to the inhibition of the growth of E. coli TG1 cells by the abovementioned compound 5,988,031. This figure represents the optical density measured at 650 nm (y-axis) with reference to the concentration of the compound 5,988,031 in μg/ml (x-axis).
The E. coli TG1 cells, diluted according to the protocol described hereafter in the experimental part, are incubated with increasing concentrations of the compound 5,988,031. The growth of the bacteria is measured at 650 nm after incubation for 12 hours at 37° C. under stirring in a microassay dish.
The various compounds isolated are tested for their TG1 E. coli bacteria growth-inhibiting properties. Cells in stationary phase are diluted to {fraction (1/10,000)} in LB medium (tryptone 10 g; yeast extract 5 g; NaCl 5 g) and are transfected in a microassay dish (200 μl/well). The molecules are added to 10% DMSO, at a final concentration of 100 mg/ml. […] After incubation overnight at 37° C. under stirring, the optical density of each well at 650 nm is measured.

The test system of the next test is M. Luteus. Put plainly: antibiotic activity on other strains tested. The test is classed as cell-based. The note with it: concentration not given.
Where [5] appears, read: other strains tested, concentration not given.

Entries after “also recorded” stand apart in the source; their conditions may differ.

Take `O=C(/C=C/c1ccc(-c2cccc([N+](=O)[O-])c2)o1)c1cc2ccccc2o1` [5,768,818]: in the test on E. coli K12 (500 μg/ml), the “diameter of inhibition, K12” value is recorded as “negative”. Also, the “diameter of inhibition, S aureus” value in the test with S aureus (500 μg/ml) was “negative”. The “diameter of inhibition, S epidermidis” value in the test on S epidermidis (500 μg/ml) is reported as “negative”.
For `O=C(/C=C/c1ccc(-c2ccc([N+](=O)[O-])cc2)o1)c1cc2ccccc2o1` [5,761,890], in the test with E. coli K12 (500 μg/ml), the “diameter of inhibition, K12” value was “negative”. Besides, the “diameter of inhibition, S aureus” value in the test on S aureus (500 μg/ml) was “negative”. Also, the “diameter of inhibition, S epidermidis” value with S epidermidis (500 μg/ml) is “negative”.
Regarding `COc1ccc(-c2ccc(/C=C/C(=O)c3cc4ccccc4o3)o2)cc1` [compound 5,858,445], in test [1], the “inhibition of the bond between σ^70 and the RNA polymerase (in words)” value is on record as “most active”. Besides, the “diameter of inhibition, K12” value in the test with E. coli K12 (500 μg/ml) is “negative”. The “diameter of inhibition, S aureus” value in the test on S aureus (500 μg/ml) stood at 4.2 mm. The “diameter of inhibition, S epidermidis” value in the test with S epidermidis (500 μg/ml) is recorded as 4.2 mm.
In the case of `CN[C@H](CC(C)C)C(=O)N[C@H]1C(=O)N[C@@H](CC(N)=O)C(=O)N[C@H]2C(=O)N[C@H]3C(=O)N[C@H](C(=O)N[C@H](C(=O)O)c4cc(O)cc(O)c4-c4cc3ccc4O)[C@H](O)c3ccc(c(Cl)c3)Oc3cc2cc(c3O[C@@H]2O[C@H](CO)[C@@H](O)[C@H](O)[C@H]2O[C@H]2C[C@](C)(N)[C@H](O)[C@H](C)O2)Oc2ccc(cc2Cl)[C@H]1O` [vancomycin, reference compound], in the test with E. coli K12 (50 μg/ml), the “diameter of inhibition, K12” value is on record as “negative”. Also, the “diameter of inhibition, S aureus” value in the test with S aureus (50 μg/ml) was determined as 5 mm. Also, the “diameter of inhibition, S epidermidis” value in the test on S epidermidis (50 μg/ml) is listed as 5 mm.
`Cc1ccc(C)n1-c1ccc(OCC(=O)O)cc1` [compound 5,988,031]: the “inhibition of the bond between σ^70 and the RNA polymerase (in words)” value in test [1] is “most active; also recorded: inhibits”. The IC50 in test [1] (FIG. 1, σ^70 adsorbed on plate, core enzyme, antibody 11D11-peroxidase, read-out: concentration giving 50% inhibition of the bond between σ^70 and the RNA polymerase (converted)) is ~20.4 µM. For the same compound, the “inhibition of the bond between NusA and the RNA polymerase (in words)” value in test [2] is listed as “inhibits”. The “inhibition of the bond between an antibody (11D11) and the RNA polymerase (in words)” value in [3] is on record as “not”. In test [4], the “inhibition of the assembly of the α, β and β′ subunits (in words)” value is reported as “not”. For the same compound, the “inhibition of the growth of E. coli TG1 cells (in words)” value in the test with E. coli TG1 cells is reported as “inhibits”. The “activity on E. coli K12 (in words)” value in the test with E. coli K12 (setting [5]) is reported as “not active”. The “activity on S. aureus (in words)” value in the test with S aureus (setting [5]) is reported as “not active”. Also, the “activity on M. Luteus (in words)” value in the test on M. Luteus is reported as “not active”.
